Test results published in US9585879B2, “Heterocyclic GSK-3 allosteric modulators” (Consejo Superior de Investigaciones Cientificas (CSIC), priority 2011, dated 2017).
Where two headings read alike, the source gives them in different places.

Assays:
[1] = molecular target: recombinant human GSK3 enzyme (GSK-3β); type: biochemical; conditions: Kinase-Glo, 1 μM ATP, 25 μM substrate, 30 min at 30 °C
Description: Measurement of the Inhibition of GSK-3β
The enzyme inhibition assays were performed using the luminometric methodology of kinase-Glo®. The recombinant human GSK3 enzyme (catalogue no. 14-306) was acquired from Upstate (Dundee, UK). The prephosphorylated polypeptide was synthesised by American Peptide Inc. (Sunnyvale, Calif.). The luminescent kinase kit (catalogue no. V6711) was obtained from Promega. The ATP and the other reagents were purchased from Sigma-Aldrich (St. Louis, Mo.).
The assays were performed in buffer using 96-well plates. 10µl of the compound to be assayed (dissolved in DMSO at a concentration of 1 mM, and, in turn, dissolved in buffer to the concentration necessary for the experiment) and 10µl (20 ng) of the enzyme are added to each well, followed by 20µl of buffer containing 25µM of the substrate and 1µM of ATP. […] Following a half-hour incubation at 30° C., the enzymatic reaction is stopped with 40µl of the kinase-Glo® reagent. The luminescence is measured after ten minutes, using a POLARstar Optima multimode reader. The activity is proportional to the difference between the total ATP and the ATP consumed. The inhibitory activities were calculated as a function of the maximum activity, measured in the absence of inhibitor.

GSK-3β [2] = assay: Study of the inhibition of GSK-3β as a function of enzyme-inhibitor pre-incubation time; type: biochemical, human
Description: In order to determine the binding mode of these compounds, different kinetic studies were performed, varying the reaction times and the ATP concentration and the substrate concentration.

GSK-3β [3] = type: biochemical, human
Description: The ATP concentrations were varied from 1 to 50 µM, whereas the concentration of the GS-2 peptide was kept constant at 12.5 µM. The concentrations of inhibitor (compound 6) used are shown in the plot.
The kinetic studies conducted by varying the ATP concentration from 1 to 50µM, and the concentration of inhibitor 6 from 5 to 10µM, were performed using the ADP-Glo™ Kinase Assay.

GSK-3β [4] = type: biochemical, human; remark: listed apart in the source
Description: The GS-2 concentrations were varied from 15.5 to 100 µM, whereas the ATP concentration was kept constant at 1 µM. The concentrations of inhibitor (compound 6) used are shown in the plot.
On the other hand, we also studied the dependence of GSK-3β activity in the presence of these inhibitors as a function of the concentration of the substrate, the GS-2 peptide, used in the assays.

[5] = GS-2 15.5 to 100 μM, ATP 1 μM, inhibitor 5 to 10 μM

SMILES | IC50 [1] [µM] | % inhibition of GSK-3β (GSK-3β [2]; [Comp. 6] 5 μM, pre-incubation time E + I 0 min) [%] | % inhibition of GSK-3β (GSK-3β [2]; [Comp. 6] 5 μM, pre-incubation time E + I 5 min) [%] | % inhibition of GSK-3β (GSK-3β [2]; [Comp. 6] 5 μM, pre-incubation time E + I 10 min) [%] | % inhibition of GSK-3β (GSK-3β [2]; [Comp. 6] 10 μM, pre-incubation time E + I 0 min) [%] | % inhibition of GSK-3β (GSK-3β [2]; [Comp. 6] 10 μM, pre-incubation time E + I 5 min) [%] | % inhibition of GSK-3β (GSK-3β [2]; [Comp. 6] 10 μM, pre-incubation time E + I 10 min) [%] | reversibility of GSK-3β inhibition (GSK-3β [2]; different enzyme incubation times, two inhibitor concentrations) | Michaelis-Menten constant (Km) in the presence of the inhibitor (GSK-3β [3]) | mode of inhibition with respect to ATP (GSK-3β [3]; ATP 1 to 50 μM, GS-2 12.5 μM, inhibitor 5 to 10 μM) | maximum enzyme activity (Vmax) in the presence of the inhibitor (GSK-3β [3]; ATP 1 to 50 μM, inhibitor 5 to 10 μM) | Michaelis-Menten constant (Km) in the presence of the inhibitor (GSK-3β [4]) | maximum enzyme activity (Vmax) in the presence of the inhibitor (GSK-3β [4]; [5]) | mode of inhibition with respect to substrate GS-2 (GSK-3β [4]; [5])
CCCCCCCCCCCC(=O)NNC(=O)c1c(O)c2ccccc2n(C)c1=O [Compound 4, N′-Dodecanoyl-4-hydroxy-1-methyl-2-oxo-1,2-dihydroquinoline-3-carbohydrazide] | 7.35 ± 0.23 | – | – | – | – | – | – | – | – | – | – | – | – | –
CCCCCCCCCCCC(=O)NNC(=O)c1c(O)c2ccccc2n(CC)c1=O [Compound 6, N′-Dodecanoyl-1-ethyl-4-hydroxy-2-oxo-1,2-dihydroquinoline-3-carbohydrazide] | – | 27.42 | 30.31 | 30.18 | 61.4 | 63.04 | 62.26 | reversible inhibitor | remains invariable | non-ATP-competitive inhibitor | decreases | remains invariable | decreases | substrate-non-competitive inhibitor
CCCCCCCCCCCC(=O)N(Cc1ccccc1)NC(=O)c1c(O)c2ccccc2n(Cc2ccccc2)c1=O [Compound 63, N′,1-Dibenzyl-N′-dodecanoyl-4-hydroxy-2-oxo-1,2-dihydroquinoline-3-carbohydrazide] | 6.84 ± 0.51 | – | – | – | – | – | – | – | – | – | – | – | – | –
